# Measured values: patent US20140163026A1, “8-ETHYL-6-(ARYL)PYRIDO[2,3-D]PYRIMIDIN-7(8H)-ONES FOR THE TREATMENT OF NERVOUS SYSTEM DISORDERS AND CANCER” (Afraxis Holdings, Inc., priority 2011, published 2014)
# Legend:
# Assay type in all cases: biochemical
# PAK1 = PAK1 (Homo sapiens, UniProt Q13153); experiment: In vitro PAK inhibition assay (SelectScreen, Ser/Thr 19 peptide)
# Outline: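 Kinase reaction ran in 50 mM HEPES pH 7.5, 0.01% BRIJ-35, 10 mM MgCl2, 1 mM EGTA with Ser/Thr 19 peptide for 60 min at room temperature, followed by 60 min protease development. Fluorescence gave percent phosphorylation. Compounds were tested as 10-point, 3-fold titrations in 1% DMSO final.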
# PAK2 (PAK65) = PAK2 (PAK65) (Homo sapiens, UniProt Q13177); experiment: In vitro PAK inhibition assay (SelectScreen, Ser/Thr 20 peptide)
# Sequence of PAK2 (PAK65) (Q13177 whole entry): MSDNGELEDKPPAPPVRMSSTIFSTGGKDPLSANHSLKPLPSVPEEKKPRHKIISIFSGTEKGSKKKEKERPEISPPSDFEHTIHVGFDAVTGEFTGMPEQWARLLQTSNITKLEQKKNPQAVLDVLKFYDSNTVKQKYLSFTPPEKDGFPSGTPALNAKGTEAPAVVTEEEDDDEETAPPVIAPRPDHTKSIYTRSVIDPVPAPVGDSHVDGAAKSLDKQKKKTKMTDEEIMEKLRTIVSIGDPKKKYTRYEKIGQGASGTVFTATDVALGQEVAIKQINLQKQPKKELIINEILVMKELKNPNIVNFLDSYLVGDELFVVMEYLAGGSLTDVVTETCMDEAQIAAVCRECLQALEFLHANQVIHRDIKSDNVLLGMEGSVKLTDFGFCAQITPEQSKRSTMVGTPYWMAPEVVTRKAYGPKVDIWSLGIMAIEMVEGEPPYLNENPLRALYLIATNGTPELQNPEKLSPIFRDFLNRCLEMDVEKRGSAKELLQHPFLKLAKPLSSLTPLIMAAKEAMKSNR
# Outline: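 FRET-based peptide cleavage assay: 0.29-6 ng PAK2 and 2 μM Ser/Thr 20 peptide in 50 mM HEPES pH 7.5, 10 mM MgCl2, 1 mM EGTA, 0.01% BRIJ-35, 1% DMSO final. Kinase reaction 60 min at room temperature, then 60 min development; 10-point 3-fold titrations, percent phosphorylation from fluorescence.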
# PAK3 = PAK3 (Homo sapiens, UniProt O75914); experiment: as above
# Sequence of PAK3 (O75914 whole entry): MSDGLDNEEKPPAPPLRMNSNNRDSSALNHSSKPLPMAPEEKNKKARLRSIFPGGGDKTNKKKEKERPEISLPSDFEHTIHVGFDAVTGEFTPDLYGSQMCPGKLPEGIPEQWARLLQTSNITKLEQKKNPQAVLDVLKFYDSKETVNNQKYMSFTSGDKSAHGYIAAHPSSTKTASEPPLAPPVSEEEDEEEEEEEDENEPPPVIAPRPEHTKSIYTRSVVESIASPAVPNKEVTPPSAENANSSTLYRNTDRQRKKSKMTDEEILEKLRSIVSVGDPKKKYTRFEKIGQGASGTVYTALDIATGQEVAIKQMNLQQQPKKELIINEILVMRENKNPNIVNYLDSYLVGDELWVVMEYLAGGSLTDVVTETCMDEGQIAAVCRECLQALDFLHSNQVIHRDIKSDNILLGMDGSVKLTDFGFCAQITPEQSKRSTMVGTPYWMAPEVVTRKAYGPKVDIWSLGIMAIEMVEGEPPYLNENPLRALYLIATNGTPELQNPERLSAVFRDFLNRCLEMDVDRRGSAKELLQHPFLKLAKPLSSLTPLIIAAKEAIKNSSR
# Outline: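 PAK3 phosphorylation of Ser/Thr 20 peptide in 50 mM HEPES pH 7.5, 0.01% BRIJ-35, 10 mM MgCl2, 1 mM EGTA, 1% DMSO final; 60 min at room temperature, then 60 min development reaction with fluorescence read-out. 10-point 3-fold titrations; percent phosphorylation from 0% and 100% phosphopeptide controls.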
# PAK4 = PAK4 (Homo sapiens, UniProt O96013); experiment: as above
# Sequence of PAK4 (O96013 whole entry): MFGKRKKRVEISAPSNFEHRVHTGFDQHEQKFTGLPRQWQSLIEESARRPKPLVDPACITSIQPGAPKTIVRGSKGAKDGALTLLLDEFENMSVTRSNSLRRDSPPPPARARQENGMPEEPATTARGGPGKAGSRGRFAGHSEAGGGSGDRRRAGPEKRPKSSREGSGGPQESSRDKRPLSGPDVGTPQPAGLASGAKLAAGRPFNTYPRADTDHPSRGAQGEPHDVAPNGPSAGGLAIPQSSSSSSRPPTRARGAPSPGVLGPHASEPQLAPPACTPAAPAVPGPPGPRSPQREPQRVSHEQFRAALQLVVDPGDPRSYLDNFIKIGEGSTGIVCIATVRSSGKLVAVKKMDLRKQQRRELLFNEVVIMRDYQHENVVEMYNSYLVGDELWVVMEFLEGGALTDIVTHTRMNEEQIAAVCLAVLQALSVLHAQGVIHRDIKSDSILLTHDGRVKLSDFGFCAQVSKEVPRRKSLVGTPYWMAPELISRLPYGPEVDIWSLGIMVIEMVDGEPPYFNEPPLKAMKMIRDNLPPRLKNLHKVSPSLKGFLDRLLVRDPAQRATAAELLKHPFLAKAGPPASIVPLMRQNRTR
# Outline: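 FRET-based Ser/Thr 20 peptide phosphorylation: 0.1-0.75 ng PAK4, 2 μM peptide in 50 mM HEPES pH 7.5, 10 mM MgCl2, 1 mM EGTA, 0.01% BRIJ-35, 1% DMSO; 60 min at room temperature, then 60 min protease development. 10-point 3-fold titrations; IC50 from sigmoidal fit.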
# Sequence of PAK1 (Q13153 whole entry): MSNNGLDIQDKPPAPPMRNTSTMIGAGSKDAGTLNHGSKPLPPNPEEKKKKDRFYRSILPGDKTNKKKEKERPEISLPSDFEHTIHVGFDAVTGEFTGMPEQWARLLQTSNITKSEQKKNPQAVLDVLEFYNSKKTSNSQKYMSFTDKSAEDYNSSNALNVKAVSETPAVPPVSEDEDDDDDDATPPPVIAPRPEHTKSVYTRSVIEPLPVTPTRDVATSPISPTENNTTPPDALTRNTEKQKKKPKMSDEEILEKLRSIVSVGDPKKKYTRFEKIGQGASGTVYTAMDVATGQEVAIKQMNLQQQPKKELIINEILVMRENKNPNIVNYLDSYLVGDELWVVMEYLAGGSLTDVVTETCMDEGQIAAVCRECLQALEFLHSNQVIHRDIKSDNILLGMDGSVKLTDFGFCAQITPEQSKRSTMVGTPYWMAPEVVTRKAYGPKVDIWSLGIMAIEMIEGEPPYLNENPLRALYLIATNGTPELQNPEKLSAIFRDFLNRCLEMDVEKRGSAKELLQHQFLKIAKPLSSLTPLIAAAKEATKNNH
SMILES,IC50 (PAK1) [nM],IC50 (PAK2 (PAK65)) [nM],IC50 (PAK3) [nM],IC50 (PAK4) [nM]
CN(C)CCc1ccc(Nc2ncc3cc(-c4ccc(-c5cccnc5N(C)C)cc4Cl)c(=O)n(C)c3n2)cc1,50 to 500,500 to 5000,500 to 5000,≥ 5000
CCn1c(=O)c(-c2ccc(-c3cccnc3)cc2Cl)cc2cnc(Nc3ccccc3)nc21,50 to 500,500 to 5000,500 to 5000,≥ 5000
CNC(=O)c1cc(-c2ccc(-c3cc4cnc(Nc5ccc(C6CCN(C)CC6)cc5)nc4n(C)c3=O)c(Cl)c2)ccn1,50 to 500,50 to 500,500 to 5000,≥ 5000
CCn1c(=O)c(-c2ccc(-c3noc(C)n3)cc2F)cc2cnc(Nc3ccc(C4CCN(C)CC4)cc3)nc21,< 50,< 50,50 to 500,≥ 5000
CCN1CCC(c2ccc(Nc3ncc4cc(-c5ccc(-c6ccnc(C(=O)NC)c6)cc5Cl)c(=O)n(CC)c4n3)cc2)CC1,50 to 500,50 to 500,50 to 500,500 to 5000
CCn1c(=O)c(-c2ccc(-c3cnc(C)s3)cn2)cc2cnc(Nc3ccc(C4CCN(C)CC4)cc3)nc21,500 to 5000,> 5000,> 5000,≥ 5000
CCn1c(=O)c(-c2ccc(-c3cccnc3C)cc2Cl)cc2cnc(Nc3ccc(C4CCN(C)CC4)cc3)nc21,< 50,< 50,< 50,≥ 5000
Cc1ncc(-c2cc(Cl)c(-c3cc4cnc(Nc5ccc(C6CCN(C)CC6)cc5)nc4n(C)c3=O)cc2F)s1,< 50,< 50,< 50,≥ 5000
CCn1c(=O)c(-c2ccc(-c3cnc(C)s3)cc2Cl)cc2cnc(Nc3ccc(CCN4CCOCC4)cc3)nc21,50 to 500,50 to 500,50 to 500,≥ 5000

# More lines, now with the values ahead:
IC50 (PAK1) [nM],IC50 (PAK2 (PAK65)) [nM],IC50 (PAK3) [nM],IC50 (PAK4) [nM],SMILES
< 50,< 50,< 50,≥ 5000,CCn1c(=O)c(-c2ccc(-c3cncs3)cc2Cl)cc2cnc(Nc3ccc(N4CCN(C)CC4)c(F)c3)nc21
< 50,< 50,50 to 500,500 to 5000,CCn1c(=O)c(-c2ccc(-c3ccc(C)nc3)cc2Cl)cc2cnc(Nc3ccc(C4CCNCC4)c(F)c3)nc21
< 50,< 50,< 50,500 to 5000,CCN1CCN(c2ccc(Nc3ncc4cc(-c5ccc(-c6cccnc6)cc5Cl)c(=O)n(CC)c4n3)cc2)CC1
< 50,< 50,50 to 500,500 to 5000,CCn1c(=O)c(-c2ccc(-c3ccc(C)nc3)cc2Cl)cc2cnc(Nc3ccc(C4CCN(C)CC4)cc3)nc21
< 50,< 50,50 to 500,≥ 5000,CCn1c(=O)c(-c2ccc(-c3cccs3)cc2Cl)cc2cnc(Nc3ccc(N4CCN(C)CC4)cc3)nc21
> 5000,500 to 5000,500 to 5000,≥ 5000,CCn1c(=O)c(-c2ccc(-c3ccc(NC(C)=O)nc3)cc2Cl)cc2cnc(Nc3ccc(N4CCN(C)CC4)cc3)nc21
